What all share (assay): IC50 for competition of kinobeads binding (-log10 M (pIC50))
In assay [1] the target is T1, MASTL (UniProt Q96GX5).
T1 sequence (whole entry): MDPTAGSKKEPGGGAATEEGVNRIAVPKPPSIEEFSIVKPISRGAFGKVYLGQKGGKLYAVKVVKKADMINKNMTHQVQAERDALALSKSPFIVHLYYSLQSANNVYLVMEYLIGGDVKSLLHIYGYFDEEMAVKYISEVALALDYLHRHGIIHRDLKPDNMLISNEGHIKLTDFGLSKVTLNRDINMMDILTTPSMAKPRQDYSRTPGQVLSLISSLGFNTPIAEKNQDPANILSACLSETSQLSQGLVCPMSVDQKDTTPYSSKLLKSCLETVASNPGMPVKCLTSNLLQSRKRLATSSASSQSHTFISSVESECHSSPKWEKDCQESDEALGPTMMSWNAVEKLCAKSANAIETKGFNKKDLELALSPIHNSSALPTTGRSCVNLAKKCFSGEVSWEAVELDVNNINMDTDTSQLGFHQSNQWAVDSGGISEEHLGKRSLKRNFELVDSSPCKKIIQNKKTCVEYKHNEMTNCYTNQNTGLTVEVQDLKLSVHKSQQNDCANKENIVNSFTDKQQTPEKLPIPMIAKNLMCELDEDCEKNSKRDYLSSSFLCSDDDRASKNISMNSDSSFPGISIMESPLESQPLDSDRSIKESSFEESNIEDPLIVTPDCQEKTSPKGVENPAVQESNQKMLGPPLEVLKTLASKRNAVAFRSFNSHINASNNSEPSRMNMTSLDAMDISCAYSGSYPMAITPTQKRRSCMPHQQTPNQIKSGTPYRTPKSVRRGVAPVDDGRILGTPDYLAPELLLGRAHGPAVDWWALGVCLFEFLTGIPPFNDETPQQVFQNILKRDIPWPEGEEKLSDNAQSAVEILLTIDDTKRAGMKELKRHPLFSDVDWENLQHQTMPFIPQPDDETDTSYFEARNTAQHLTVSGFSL

Assay [2] has as its target LOC100128443.
Assay [3] deals with KIAA1804 (UniProt Q5TCX8).
Sequence of KIAA1804 (Q5TCX8 whole entry): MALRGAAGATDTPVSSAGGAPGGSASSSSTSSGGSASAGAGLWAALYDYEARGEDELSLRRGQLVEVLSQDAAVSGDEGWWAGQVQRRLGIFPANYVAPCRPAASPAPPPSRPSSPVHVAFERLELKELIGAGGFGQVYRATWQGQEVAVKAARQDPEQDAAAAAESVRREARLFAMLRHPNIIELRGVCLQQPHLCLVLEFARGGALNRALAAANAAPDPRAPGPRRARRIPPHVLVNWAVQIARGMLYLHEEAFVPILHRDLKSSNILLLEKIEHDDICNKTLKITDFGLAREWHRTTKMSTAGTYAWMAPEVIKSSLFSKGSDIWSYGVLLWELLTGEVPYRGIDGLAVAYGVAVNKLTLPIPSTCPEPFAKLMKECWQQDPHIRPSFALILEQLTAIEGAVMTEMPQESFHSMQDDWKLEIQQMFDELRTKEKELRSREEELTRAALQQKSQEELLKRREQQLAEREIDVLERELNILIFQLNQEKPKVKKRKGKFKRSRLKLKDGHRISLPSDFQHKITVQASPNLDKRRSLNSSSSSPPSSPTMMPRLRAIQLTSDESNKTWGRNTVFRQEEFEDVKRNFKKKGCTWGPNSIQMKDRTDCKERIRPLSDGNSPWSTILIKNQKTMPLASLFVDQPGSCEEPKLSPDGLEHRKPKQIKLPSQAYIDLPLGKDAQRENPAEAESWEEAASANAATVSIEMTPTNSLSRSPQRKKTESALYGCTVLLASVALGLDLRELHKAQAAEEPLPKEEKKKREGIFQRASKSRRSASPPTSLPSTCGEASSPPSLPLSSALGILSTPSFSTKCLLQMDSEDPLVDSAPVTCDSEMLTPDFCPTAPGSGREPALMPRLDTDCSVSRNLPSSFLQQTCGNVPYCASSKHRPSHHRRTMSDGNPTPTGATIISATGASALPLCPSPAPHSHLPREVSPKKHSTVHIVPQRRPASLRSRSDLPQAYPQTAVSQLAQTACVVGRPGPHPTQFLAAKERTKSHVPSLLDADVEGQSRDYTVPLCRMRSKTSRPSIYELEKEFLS
The target of assay [4] is PDIK1L (UniProt Q8N165).
Sequence of PDIK1L (Q8N165 whole entry): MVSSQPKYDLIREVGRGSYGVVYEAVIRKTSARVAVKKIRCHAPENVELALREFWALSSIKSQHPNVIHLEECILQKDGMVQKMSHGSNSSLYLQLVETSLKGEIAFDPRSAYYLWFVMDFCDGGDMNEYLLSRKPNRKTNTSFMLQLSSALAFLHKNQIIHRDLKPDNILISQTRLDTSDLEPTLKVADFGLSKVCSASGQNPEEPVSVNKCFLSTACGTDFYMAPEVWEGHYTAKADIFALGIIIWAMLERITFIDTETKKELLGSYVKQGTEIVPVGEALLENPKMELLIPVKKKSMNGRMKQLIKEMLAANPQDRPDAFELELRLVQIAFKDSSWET
Assay [5] deals with T2, BCR (UniProt P11274).
T2 sequence (whole entry): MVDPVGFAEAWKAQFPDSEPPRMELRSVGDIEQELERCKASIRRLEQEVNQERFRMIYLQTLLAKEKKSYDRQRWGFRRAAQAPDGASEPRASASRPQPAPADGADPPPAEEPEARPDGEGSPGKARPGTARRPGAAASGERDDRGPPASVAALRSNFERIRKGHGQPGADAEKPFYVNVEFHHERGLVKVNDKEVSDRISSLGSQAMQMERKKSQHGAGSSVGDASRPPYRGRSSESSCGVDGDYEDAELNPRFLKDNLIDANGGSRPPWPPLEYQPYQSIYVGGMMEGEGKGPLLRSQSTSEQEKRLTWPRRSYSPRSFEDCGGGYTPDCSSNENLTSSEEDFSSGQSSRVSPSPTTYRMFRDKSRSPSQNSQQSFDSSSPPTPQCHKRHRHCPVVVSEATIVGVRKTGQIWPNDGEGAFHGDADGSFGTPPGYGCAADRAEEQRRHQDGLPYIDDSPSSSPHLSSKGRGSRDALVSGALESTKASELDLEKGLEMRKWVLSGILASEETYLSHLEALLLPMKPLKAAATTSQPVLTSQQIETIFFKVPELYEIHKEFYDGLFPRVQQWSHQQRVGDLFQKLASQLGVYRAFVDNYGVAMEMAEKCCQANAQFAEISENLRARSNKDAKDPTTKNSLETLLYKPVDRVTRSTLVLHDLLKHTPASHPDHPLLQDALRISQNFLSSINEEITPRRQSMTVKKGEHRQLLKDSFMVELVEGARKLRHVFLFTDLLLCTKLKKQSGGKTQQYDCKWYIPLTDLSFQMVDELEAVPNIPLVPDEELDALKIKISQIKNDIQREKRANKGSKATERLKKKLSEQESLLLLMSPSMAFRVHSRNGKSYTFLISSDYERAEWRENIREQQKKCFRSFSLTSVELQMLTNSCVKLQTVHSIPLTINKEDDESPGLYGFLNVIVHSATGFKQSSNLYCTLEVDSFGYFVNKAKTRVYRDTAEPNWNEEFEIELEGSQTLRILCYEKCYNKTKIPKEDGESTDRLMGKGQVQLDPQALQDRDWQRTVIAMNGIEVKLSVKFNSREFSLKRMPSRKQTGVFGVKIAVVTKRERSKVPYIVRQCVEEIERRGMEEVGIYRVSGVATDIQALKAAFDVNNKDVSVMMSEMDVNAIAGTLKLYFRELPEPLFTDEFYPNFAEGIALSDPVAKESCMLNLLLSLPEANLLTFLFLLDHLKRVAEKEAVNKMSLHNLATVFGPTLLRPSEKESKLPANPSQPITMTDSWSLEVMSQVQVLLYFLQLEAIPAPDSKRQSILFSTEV

Assay [6] has as its target MAST3 (UniProt O60307).
Assay [7] concerns the target MARK1 (UniProt Q9P0L2).
Assay [8] has as its target CDK10 (UniProt Q15131).
[9] abbreviates: assay format: miniaturized (250 µg protein).
[10] abbreviates: assay format: standard (5 mg protein).

Sequence of MARK1 (Q9P0L2 whole entry, looked up): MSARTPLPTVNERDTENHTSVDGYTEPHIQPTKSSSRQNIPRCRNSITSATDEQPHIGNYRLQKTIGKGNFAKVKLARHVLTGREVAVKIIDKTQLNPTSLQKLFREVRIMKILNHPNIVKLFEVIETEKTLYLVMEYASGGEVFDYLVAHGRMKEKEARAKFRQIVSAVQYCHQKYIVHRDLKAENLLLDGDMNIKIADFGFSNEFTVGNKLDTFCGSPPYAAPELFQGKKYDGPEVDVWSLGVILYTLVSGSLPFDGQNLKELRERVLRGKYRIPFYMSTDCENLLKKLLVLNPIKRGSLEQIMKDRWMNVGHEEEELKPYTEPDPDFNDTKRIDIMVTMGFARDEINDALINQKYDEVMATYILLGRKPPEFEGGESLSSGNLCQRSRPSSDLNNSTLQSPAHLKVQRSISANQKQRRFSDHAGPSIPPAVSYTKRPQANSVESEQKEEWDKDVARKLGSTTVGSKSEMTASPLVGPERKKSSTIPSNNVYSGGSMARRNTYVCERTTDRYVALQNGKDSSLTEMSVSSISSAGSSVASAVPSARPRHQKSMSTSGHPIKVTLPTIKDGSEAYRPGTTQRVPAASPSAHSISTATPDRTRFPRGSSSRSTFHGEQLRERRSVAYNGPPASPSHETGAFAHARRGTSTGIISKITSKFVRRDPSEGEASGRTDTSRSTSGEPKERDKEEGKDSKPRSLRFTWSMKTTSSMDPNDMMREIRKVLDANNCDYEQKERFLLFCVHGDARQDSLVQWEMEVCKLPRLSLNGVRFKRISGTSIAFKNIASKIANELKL
Sequence of CDK10 (Q15131 whole entry): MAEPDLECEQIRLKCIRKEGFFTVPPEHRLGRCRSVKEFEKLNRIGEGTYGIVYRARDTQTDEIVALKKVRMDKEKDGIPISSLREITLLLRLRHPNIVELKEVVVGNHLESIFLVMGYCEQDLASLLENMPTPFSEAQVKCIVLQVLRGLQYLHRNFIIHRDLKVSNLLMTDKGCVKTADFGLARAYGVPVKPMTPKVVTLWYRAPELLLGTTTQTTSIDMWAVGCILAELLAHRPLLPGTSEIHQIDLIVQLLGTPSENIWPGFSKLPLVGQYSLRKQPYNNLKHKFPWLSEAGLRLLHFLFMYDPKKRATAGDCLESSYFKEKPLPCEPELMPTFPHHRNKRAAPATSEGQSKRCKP
Sequence of MAST3 (O60307 whole entry): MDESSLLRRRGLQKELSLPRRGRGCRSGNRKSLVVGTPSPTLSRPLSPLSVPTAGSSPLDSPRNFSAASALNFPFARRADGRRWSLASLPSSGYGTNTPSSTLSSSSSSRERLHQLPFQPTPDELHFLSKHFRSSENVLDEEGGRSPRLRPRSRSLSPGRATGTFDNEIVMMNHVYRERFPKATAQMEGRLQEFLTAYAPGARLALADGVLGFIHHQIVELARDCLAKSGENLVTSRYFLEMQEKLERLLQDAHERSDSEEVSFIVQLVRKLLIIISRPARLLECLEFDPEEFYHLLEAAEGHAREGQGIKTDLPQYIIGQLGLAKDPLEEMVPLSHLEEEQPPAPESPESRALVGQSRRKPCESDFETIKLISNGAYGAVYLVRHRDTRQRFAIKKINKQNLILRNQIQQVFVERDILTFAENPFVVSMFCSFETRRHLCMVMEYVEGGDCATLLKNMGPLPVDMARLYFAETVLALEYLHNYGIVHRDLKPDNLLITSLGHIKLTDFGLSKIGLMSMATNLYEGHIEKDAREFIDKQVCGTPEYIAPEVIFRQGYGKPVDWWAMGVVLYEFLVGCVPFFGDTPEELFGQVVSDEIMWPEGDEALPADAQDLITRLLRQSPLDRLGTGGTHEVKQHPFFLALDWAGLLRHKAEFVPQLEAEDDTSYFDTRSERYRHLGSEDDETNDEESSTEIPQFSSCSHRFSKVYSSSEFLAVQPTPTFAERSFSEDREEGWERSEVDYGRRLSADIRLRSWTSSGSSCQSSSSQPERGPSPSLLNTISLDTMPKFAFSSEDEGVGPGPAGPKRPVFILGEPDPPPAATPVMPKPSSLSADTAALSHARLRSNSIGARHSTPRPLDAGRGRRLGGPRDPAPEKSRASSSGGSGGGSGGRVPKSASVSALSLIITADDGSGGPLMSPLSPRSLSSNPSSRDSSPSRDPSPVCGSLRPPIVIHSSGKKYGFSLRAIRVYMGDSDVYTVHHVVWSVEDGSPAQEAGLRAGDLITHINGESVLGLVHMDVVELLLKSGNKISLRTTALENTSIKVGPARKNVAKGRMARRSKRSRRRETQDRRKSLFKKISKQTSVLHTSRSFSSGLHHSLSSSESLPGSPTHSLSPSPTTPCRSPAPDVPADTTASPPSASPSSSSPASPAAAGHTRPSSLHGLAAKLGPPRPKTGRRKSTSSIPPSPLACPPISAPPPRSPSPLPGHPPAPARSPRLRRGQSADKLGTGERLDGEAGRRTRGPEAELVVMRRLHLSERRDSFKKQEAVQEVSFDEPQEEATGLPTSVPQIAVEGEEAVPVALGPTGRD

In the case of `Cc1nc(Nc2ncc(C(=O)Nc3c(C)cccc3Cl)s2)cc(N2CCN(CCO)CC2)n1` [dasatinib], the “IC50 (-log10 M)” value in assay [1] (setting [9]), in assay [1] (setting [10]), in assay [2] (setting [9]), in assay [2] (setting [10]), in assay [3] (setting [9]) and in assay [3] (setting [10]) was “inactive” throughout. The “IC50 (-log10 M)” value in assay [4] (setting [9]) is 5.7; in assay [4] (setting [10]), “inactive”; in assay [5] (setting [9]), 8.64; in assay [5] (setting [10]), 8.49; in assay [6] (setting [9]), “inactive”; in assay [6] (setting [10]), “inactive”. The “IC50 (-log10 M)” value in assay [7] (setting [9]), in assay [7] (setting [10]), in assay [8] (setting [9]) and in assay [8] (setting [10]) was “inactive” in each case.
